The test addresses α7 nAChR subtype (Rattus norvegicus, UniProt Q05941). It is filed as binding.

Kd data for one substance are collected here from patent US6054464A (priority 1996, dated 2000).

pKd: −log10 of the molar value.

Chain of α7 nAChR subtype (Q05941 23-502 limits assumed): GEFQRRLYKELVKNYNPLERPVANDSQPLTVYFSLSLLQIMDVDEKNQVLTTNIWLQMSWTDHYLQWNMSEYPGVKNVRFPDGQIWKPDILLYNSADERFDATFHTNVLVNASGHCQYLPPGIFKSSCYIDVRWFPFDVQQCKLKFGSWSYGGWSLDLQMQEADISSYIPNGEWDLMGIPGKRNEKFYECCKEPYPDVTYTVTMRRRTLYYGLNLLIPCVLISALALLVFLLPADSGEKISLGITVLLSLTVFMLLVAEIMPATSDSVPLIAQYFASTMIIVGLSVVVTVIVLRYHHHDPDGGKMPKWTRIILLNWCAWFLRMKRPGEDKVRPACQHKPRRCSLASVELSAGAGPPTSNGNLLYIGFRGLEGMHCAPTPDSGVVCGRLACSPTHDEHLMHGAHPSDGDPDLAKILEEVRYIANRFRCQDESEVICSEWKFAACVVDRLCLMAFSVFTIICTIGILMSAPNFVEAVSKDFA

The pKd is the negative decadic logarithm of the Kd, by convention in mol/L. Read a low pKd as a large Kd. As for “[^125 I]-α-Bungarotoxin [[^125 I]-α-BTX]”, the pKd is 8.78.
